Measured values taken from publication PMC3939009, “Thrombin inhibitory activity of some polyphenolic compounds” (Medicinal Chemistry Research, 2013).
pIC50, pKd: −log10 of the molar value. Read-outs that look alike come from different tables or passages of the source.

Assays:
[1] = system: human thrombin; assay: Thrombin-induced platelet aggregation (turbidimetric); format: cell-based; details: compound preincubated with thrombin
Description: Blood samples in 0.32 % sodium citrate from healthy volunteers without cardiovascular disorders were collected, untreated with antiplatelet drugs. […] Platelets were isolated from PRP using BSA–Sepharose 2B gel filtration method according to Walkowiak et al. ([2000]). […] In these preparations, to nine volumes of thrombin one volume of polyphenolic compounds was added (final thrombin concentration was 15.8 nM). All tested compounds were dissolved in 50 % DMSO to the initial concentration of 10 mM; other solutions of compounds were also prepared in 50 % DMSO (prepared in 50 mM TBS, pH 7.4). […] The platelet aggregation was measured by turbidimetric method (Saluk-Juszczak et al., [2007]) using dual-channel Chrono-log optical aggregometer (Chronolog, USA). […] Platelet suspensions were pre-warmed at 37 °C with stirring.

[2] = target: T1, human thrombin (Homo sapiens, UniProt P00734); assay: Thrombin-induced fibrinogen polymerization; format: biochemical; set-up: Thrombin, also known as an active plasma coagulation factor II; purchased Sigma-Aldrich Chemical Co. (St. Louis, MO, USA) T7009; details: thrombin preincubated with compound, 10 min 37 °C
Description: In these preparations, to nine volumes of thrombin one volume of polyphenolic compounds was added (final thrombin concentration was 15.8 nM). All tested compounds were dissolved in 50 % DMSO to the initial concentration of 10 mM; other solutions of compounds were also prepared in 50 % DMSO (prepared in 50 mM TBS, pH 7.4). […] Polymerization of fibrin was monitored at 595 nm using a 96-well microtiter plate reader. To each reaction well of the microtiter plate, 100 μl of fibrinogen (3 mg/ml) in 50 mM TBS and 5 mM CaCl2, pH 7.4, were added. […] The maximal velocity of the polymerization process (V max, Δm OD/min) for each absorbance curve was determined (Nowak et al., [2007]).

[3] = target: T1, human thrombin; assay: BIAcore (SPR) analysis of binding to immobilized thrombin; set-up: Thrombin, also known as an active plasma coagulation factor II; purchased Sigma-Aldrich Chemical Co. (St. Louis, MO, USA) T7009; details: for pKd: read-out: K D, equilibrium dissociation constant; for kon: read-out: k a, association rate; for koff: read-out: k d, dissociation rate; for Response (RU): analyte 1,000 μM, thrombin immobilized on CM5 chip
Description: The biosensor assays were performed using the BIAcore 1000 biosensor system. All biosensor analyses were performed with a phosphate-buffered saline (PBS), pH 7.4, as a running buffer. […] The immobilization of thrombin on a biosensor carboxylmethyl dextran surface was performed according to the BIA applications Handbook (BIAcore, [1994]). The process of protein immobilization was performed on a sensor chip CM5 surface by the positively charged functional groups of protein amino acids. The immobilization process consisted of four steps: preconcentration, activation, ligand immobilization and deactivation of the residual NHS esters. […] The temperature during the whole experiment was also constant and was set to 25.0 °C. […] Each of these solutions (10 μl) was injected into an empty sensor chip channel. […] The amount of injected activation mixture was modified, to regulate the amount of immobilized ligand. […] The conditions of the latter experiments were established by numerous pre-tests. The assessed parameters included: the buffer flow rate, the volume of analyte injection, the concentration of analytes, types and concentration of regenerators. […] For each injection of analyte solution, the volume used was 100 μl. After injection of analyte was completed, the dissociation step occurred and the level of the interaction ligand-analyte was measured. During dissociation, the particles non-covalently bound to the ligand were washed out from the working channel. […] To do these calculations, the formulas presented below were used: the association rate […]]; the dissociation rate -d[AB]/dt=kd·[AB]; the equilibrium constants: KA=[AB]/[A]·[B]=ka/kd KD=[A]·[B]/[AB]=kd/ka.

[4] = target: T1, human thrombin; assay: Analysis of thrombin inhibition parameters (Lineweaver–Burk curves); format: biochemical; set-up: Thrombin, also known as an active plasma coagulation factor II; purchased Sigma-Aldrich Chemical Co. (St. Louis, MO, USA) T7009; details: for k cat: compound at IC50 concentration, k cat = V max/E 0, control 29.1; for Type of inhibition: from Lineweaver–Burk curves; for V max of chromogenic substrate hydrolysis by thrombin / K m of chromogenic substrate hydrolysis by thrombin: thrombin incubated with compound at IC50 concentration; for V max of chromogenic substrate hydrolysis by thrombin: control 30.7; for K m of chromogenic substrate hydrolysis by thrombin: control 158.7
Description: Absorbance was monitored every 12 s for 10 min in a 96-well microplate reader. The velocity of reaction was expressed as the increase in product (pNA) over time (∆ μmol/min) using a computer program Mikcroplate Manager® 8 and the extinction coefficient of p-nitroaniline. […] Then, the Lineweaver–Burk ([1934]) curves for thrombin in the presence and in the absence of polyphenol compounds were plotted. The Lineweaver–Burk equation, which is a transformation of the Michaelis–Menten model, looks as follows: 1/V=Km/Vmax·1/[S]+1/Vmax

[5] = target: T1, human thrombin; assay: Amidolytic activity of thrombin (hydrolysis of chromogenic substrate D-Phe-Pip-Arg-pNA); format: biochemical; set-up: Thrombin, also known as an active plasma coagulation factor II; purchased Sigma-Aldrich Chemical Co. (St. Louis, MO, USA) T7009; host or cells: purified from human plasma; details: at 375 μM substrate concentration; compounds 0.1–1,000 μM, preincubation 10 min 37 °C; read-out: IC50, amidolytic activity of human thrombin
Description: (§1) All tested compounds were dissolved in 50 % DMSO to the initial concentration of 10 mM; other solutions of compounds were also prepared in 50 % DMSO (prepared in 50 mM TBS, pH 7.4). The final concentration of DMSO in thrombin samples was 5 %. To prepare thrombin control samples, the same volume of solvent (50 % DMSO prepared in 50 mM TBS, pH 7.4) was added as in the case of the compound volume and warmed for 10 min to 37 °C.
To each reaction well, 40 μl of 3 mM chromogenic substrate was added. To initiate the chromogenic reaction, 280 μl of control thrombin (without tested compounds) or thrombin after preincubation with a polyphenolic compound to every reaction well in the same moment was added. The absorbance value was monitored every 12 s for 10 min. The maximal velocity of the reaction (V max, Δm OD/min) for each absorbance curve was determined. IC50 value (parameter) for every polyphenolic compound from inhibition curves was estimated.

[6] = target: T1, human thrombin; assay: SDS-PAGE analysis of thrombin-induced cross-linked fibrin formation; format: biochemical; set-up: Thrombin, also known as an active plasma coagulation factor II; purchased Sigma-Aldrich Chemical Co. (St. Louis, MO, USA) T7009; host or cells: purified from human plasma; details: cyanin 75 and 750 μM, (+)-catechin 125 and 1,000 μM, (−)-epicatechin 150 and 1,000 μM
Description: as §1, with “In these preparations, to nine volumes of thrombin one volume of polyphenolic compounds was added (final thrombin concentration was 15.8 nM). All” for “All”
The reactions incubated at 37 °C were stopped after 5, 15 and 30 min by adding 150 μl of lysis buffer (0.125 M Tris/HCl, 4 % SDS, 8 M urea, 10 % β-mercaptoethanol, pH 6.8). Samples were subjected to SDS-PAGE (polyacrylamide concentration—7.5 %) using Mini-Protean Electrophoresis Cell (Bio-Rad, Hercules, CA). Proteins were stained with Coomassie Brilliant Blue R250 (CBB).

Row | K A, equilibrium association constant [3] [M^–1] | K A, equilibrium association constant ([3]; 5 sensorgrams, 50 to 1,000 μM) [M⁻¹] | pKd ([3]; 5 sensorgrams, 50 to 1,000 μM) | kon ([3]; 5 sensorgrams, 50 to 1,000 μM) [M⁻¹ s⁻¹] | koff ([3]; 5 sensorgrams, 50 to 1,000 μM) [s⁻¹] | Response (RU) [3] [RU] | k cat [4] [s⁻¹] | Type of inhibition [4] | V max of chromogenic substrate hydrolysis by thrombin [4] | K m of chromogenic substrate hydrolysis by thrombin [4] | pIC50 [5] | Changes in electrophoresis of fibrinogen treated with preincubated thrombin [6] | Compound | Effect on thrombin ability to stimulate platelet aggregation [1] | Effect on thrombin ability to induce fibrinogen polymerization [2]
1 | 115 | 115 | 2.06 | 0.95 | 0.00824 | 827 | 19.7 | mixed type of inhibition | 20.8 10^−6 mol/min | 344.6 10^−6 M | 4.12 | no changes were observed | OC[C@H]1O[C@@H](Oc2cc3c(O[C@@H]4O[C@H](CO)[C@@H](O)[C@H](O)[C@H]4O)cc(O)cc3[o+]c2-c2ccc(O)c(O)c2)[C@H](O)[C@@H](O)[C@@H]1O [Cyanin, cyanin] | no effect on thrombin ability to stimulate platelets aggregation | inhibitory effect of polymerization of human fibrinogen was not observed
2 | 192 | 192 | 2.28 | 4.37 | 0.0227 | 431 | 27.8 | competitive inhibitors | 29.4 10^−6 mol/min | 481.5 10^−6 M | 3.82 | no changes were observed | Oc1cc(O)c2c(c1)O[C@H](c1ccc(O)c(O)c1)[C@H](O)C2 [(−)-Epicatechin, (−)-epicatechin] | no effect on thrombin ability to stimulate platelets aggregation | inhibitory effect of polymerization of human fibrinogen was not observed
3 | – | 20300 | 4.31 | 3.62 | 0.000178 | 717 | 29.5 | competitive inhibitors | 31.2 10^−6 mol/min | 700.1 10^−6 M | 3.90 | no changes were observed | Oc1cc(O)c2c(c1)O[C@H](c1ccc(O)c(O)c1)[C@@H](O)C2 [(+)-Catechin, (+)-catechin] | no effect on thrombin ability to stimulate platelets aggregation | inhibitory effect of polymerization of human fibrinogen was not observed
